Four compounds from US20130085150A1, “ANALOGUES FOR THE TREATMENT OR PREVENTION OF FLAVIVIRUS INFECTIONS” (Vertex Pharmaceuticals Incorporated, priority 2010, published 2013) can be followed below.

Where two headings read alike, the source gives them in different places.

For the assay, the system named is HCV (Ib) RNA replication, Huh-ET replicon cells. As to the kind of experiment: Cell-based luciferase reporter HCV (Ib) RNA replication assay. As to conditions: Hepatitis C virus, 96 h. In general terms: Reporter assays use an easily measured gene product as a stand-in for the process of interest.
[1] abbreviates: HCV 1b replicon, luciferase, 4 days, read-out: EC50_ib.

Text: Cell-Based Luciferase Reporter HCV (Ib) RNA Replication Assay Cell Culture
This cell line allows measurement of HCV RNA replication and translation by measuring luciferase activity. […] The Huh-ET cell line has the same features as those mentioned for Huh-5.2 cell line, except that ET cells are more robust and contain an adaptative mutation in the HCV NS4B gene instead of NS5A. Both cell lines are maintained in cultures at a sub-confluent level (<85%) as the level of replicon RNA is highest in actively proliferating cells. The culture media used for cell passaging consist of DMEM (Gibco BRL Laboratories, Mississauga, ON, Canada) supplemented with 10% foetal bovine serum with 1% penicilin/streptomycin, 1% glutamine, 1% sodium pyruvate, 1% non-essential amino acids, and 180 μg/ml of G418 final concentration. Cells are incubated at 37° C., in an atmosphere of 5% CO2 and passaged twice a week to maintain sub-confluence.
Approximately 3000 viable Huh-ET cells (100 μl) are plated per well in a white opaque 96-well microtiter plate. The cell culture media used for the assay is the same as described above except that it contains no G418 and no phenol red. After an incubation period of 3-4 hours at 37° C. in a 5% CO2 incubator, compounds (100 μl) are added at various concentrations. Cells are then further incubated for 4 days at 37° C. in a 5% CO2 incubator. Thereafter, the culture media is removed and cells are lysed by the addition of 95 μL of the luciferase buffer (luciferin substrate in buffered detergent). Cell lysates are incubated at room temperature and protected from direct light for at least 10 minutes. Plates are read for luciferase counts using a luminometer (Wallac MicroBeta Trilux, Perkin Elmer™, MA, USA).
Curves are fitted to data points using nonlinear regression analysis, and IC50s are interpolated from the resulting curve using GraphPad Prism software, version 2.0 (GraphPad Software Inc., San Diego, Calif., USA).

In the case of `COC(=O)N[C@H](C(=O)N1C[C@@H](C)CC1c1nc2cc(-c3ccc(-c4ccc5nc(C6C[C@H](C)CN6C(=O)[C@@H](NC(=O)OC)C(C)C)oc5c4)cc3)ccc2[nH]1)C(C)C` (stereo partly shown) [Compound 47], the EC50 (read-out: EC50_ib (uM)) is < 0.005 µM.

Regarding `c1cc(-c2ccc3nc([C@H]4CCCN4)cn3c2)ccc1-c1ccc2nc([C@H]3CCCN3)cn2c1` [Compound 3], under setting [1], the EC50 was 0.005 to 5 µM.

As to `CCCCN(Cc1nc2cc(C#Cc3ccc4[nH]c(C(=O)NC5CC5)cc4c3)ccc2[nH]1)C(=O)OCc1ccccc1` [Compound 1], under setting [1], the EC50 is 0.005 to 5 µM.

As to `CC(C)(C)OC(=O)N1CCC[C@@H]1c1cn2cc(-c3ccc(-c4ccc5nc([C@H]6CCCN6C(=O)OC(C)(C)C)cn5c4)cc3)ccc2n1` [Compound 2], the EC50 under setting [1] was 0.005 to 5 µM.
